This passage reports remaining activity results from publication PMC11864979, “First-in-class ultralong-target-residence-time p38α inhibitors as a mitosis-targeted therapy for colorectal cancer” (Nature Cancer, 2025).

What all share (experiment): selectivity profiling in a panel of 340 wild-type kinases (Reaction Biology Europe)
Holding throughout (type): binding

The target of experiment [1] is T1, 340 wild-type kinases (Homo sapiens, UniProt P36888).
T1 construct: purchased Reaction Biology Europe
T1 sequence (P36888 27-993): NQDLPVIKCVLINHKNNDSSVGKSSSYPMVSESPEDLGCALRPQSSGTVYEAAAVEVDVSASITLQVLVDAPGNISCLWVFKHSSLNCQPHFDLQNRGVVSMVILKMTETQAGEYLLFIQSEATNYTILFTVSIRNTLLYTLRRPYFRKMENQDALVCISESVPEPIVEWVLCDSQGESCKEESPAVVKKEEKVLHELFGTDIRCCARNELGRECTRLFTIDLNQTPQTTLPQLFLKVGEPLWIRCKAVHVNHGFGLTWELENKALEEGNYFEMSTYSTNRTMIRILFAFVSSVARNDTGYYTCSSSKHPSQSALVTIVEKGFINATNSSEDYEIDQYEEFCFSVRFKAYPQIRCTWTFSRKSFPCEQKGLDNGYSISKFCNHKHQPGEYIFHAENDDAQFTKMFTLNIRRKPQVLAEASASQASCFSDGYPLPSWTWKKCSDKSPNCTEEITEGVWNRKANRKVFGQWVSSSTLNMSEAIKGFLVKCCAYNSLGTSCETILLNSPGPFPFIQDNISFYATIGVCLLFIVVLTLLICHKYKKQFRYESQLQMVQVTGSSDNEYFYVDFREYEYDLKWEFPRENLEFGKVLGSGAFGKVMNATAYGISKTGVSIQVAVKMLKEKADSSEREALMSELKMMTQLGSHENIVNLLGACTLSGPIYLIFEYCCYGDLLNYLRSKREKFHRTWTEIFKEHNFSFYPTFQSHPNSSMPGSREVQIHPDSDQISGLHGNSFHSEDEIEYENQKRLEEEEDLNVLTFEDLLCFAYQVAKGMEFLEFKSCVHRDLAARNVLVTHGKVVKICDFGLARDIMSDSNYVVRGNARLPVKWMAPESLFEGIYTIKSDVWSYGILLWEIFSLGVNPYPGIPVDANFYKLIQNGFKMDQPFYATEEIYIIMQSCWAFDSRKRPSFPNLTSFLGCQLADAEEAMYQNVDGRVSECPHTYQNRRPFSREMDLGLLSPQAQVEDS

The target in experiment [2] is T2, 340 wild-type kinases (Homo sapiens, UniProt P07948).
T2 construct: purchased Reaction Biology Europe
T2 sequence (P07948 whole entry): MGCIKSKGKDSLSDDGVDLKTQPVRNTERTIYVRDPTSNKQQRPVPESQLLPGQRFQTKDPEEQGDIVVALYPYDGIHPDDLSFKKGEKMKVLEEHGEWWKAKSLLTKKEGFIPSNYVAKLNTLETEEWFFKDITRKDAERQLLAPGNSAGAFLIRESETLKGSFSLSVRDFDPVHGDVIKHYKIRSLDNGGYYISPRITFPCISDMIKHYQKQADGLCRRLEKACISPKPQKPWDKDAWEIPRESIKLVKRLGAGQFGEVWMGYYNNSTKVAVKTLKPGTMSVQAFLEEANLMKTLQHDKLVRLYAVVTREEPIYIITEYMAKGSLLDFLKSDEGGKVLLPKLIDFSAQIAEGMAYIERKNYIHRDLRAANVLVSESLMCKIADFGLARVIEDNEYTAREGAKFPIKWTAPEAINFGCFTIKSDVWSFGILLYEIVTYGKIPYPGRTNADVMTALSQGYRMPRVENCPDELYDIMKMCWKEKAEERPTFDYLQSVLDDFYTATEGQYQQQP

The target in experiment [3] is T3, 340 wild-type kinases (Homo sapiens, UniProt P21802).
T3 construct: purchased Reaction Biology Europe
T3 sequence (P21802 22-821): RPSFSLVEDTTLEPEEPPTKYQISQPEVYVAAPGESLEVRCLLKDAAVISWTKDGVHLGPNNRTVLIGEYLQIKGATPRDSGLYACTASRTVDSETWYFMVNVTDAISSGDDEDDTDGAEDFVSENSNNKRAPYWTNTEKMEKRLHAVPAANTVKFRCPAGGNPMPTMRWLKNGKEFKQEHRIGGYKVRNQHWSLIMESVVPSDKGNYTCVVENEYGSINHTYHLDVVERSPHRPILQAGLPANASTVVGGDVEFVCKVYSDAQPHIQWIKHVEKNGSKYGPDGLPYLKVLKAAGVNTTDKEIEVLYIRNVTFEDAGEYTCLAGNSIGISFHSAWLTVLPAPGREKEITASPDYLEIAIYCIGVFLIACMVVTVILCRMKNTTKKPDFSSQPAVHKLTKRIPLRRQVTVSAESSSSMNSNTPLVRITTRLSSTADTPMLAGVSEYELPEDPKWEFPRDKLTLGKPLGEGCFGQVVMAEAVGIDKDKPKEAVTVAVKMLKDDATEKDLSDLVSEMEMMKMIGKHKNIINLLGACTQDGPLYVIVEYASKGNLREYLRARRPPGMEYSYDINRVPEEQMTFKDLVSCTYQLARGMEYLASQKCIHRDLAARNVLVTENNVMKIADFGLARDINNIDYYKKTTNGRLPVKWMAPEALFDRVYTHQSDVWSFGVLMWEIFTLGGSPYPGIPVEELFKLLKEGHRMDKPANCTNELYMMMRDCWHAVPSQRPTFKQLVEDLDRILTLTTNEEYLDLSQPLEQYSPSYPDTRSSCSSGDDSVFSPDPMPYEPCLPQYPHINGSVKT

Experiment [4] has as its target T4, 340 wild-type kinases (Homo sapiens, UniProt Q99683).
T4 construct: purchased Reaction Biology Europe
T4 sequence (Q99683 1-1374): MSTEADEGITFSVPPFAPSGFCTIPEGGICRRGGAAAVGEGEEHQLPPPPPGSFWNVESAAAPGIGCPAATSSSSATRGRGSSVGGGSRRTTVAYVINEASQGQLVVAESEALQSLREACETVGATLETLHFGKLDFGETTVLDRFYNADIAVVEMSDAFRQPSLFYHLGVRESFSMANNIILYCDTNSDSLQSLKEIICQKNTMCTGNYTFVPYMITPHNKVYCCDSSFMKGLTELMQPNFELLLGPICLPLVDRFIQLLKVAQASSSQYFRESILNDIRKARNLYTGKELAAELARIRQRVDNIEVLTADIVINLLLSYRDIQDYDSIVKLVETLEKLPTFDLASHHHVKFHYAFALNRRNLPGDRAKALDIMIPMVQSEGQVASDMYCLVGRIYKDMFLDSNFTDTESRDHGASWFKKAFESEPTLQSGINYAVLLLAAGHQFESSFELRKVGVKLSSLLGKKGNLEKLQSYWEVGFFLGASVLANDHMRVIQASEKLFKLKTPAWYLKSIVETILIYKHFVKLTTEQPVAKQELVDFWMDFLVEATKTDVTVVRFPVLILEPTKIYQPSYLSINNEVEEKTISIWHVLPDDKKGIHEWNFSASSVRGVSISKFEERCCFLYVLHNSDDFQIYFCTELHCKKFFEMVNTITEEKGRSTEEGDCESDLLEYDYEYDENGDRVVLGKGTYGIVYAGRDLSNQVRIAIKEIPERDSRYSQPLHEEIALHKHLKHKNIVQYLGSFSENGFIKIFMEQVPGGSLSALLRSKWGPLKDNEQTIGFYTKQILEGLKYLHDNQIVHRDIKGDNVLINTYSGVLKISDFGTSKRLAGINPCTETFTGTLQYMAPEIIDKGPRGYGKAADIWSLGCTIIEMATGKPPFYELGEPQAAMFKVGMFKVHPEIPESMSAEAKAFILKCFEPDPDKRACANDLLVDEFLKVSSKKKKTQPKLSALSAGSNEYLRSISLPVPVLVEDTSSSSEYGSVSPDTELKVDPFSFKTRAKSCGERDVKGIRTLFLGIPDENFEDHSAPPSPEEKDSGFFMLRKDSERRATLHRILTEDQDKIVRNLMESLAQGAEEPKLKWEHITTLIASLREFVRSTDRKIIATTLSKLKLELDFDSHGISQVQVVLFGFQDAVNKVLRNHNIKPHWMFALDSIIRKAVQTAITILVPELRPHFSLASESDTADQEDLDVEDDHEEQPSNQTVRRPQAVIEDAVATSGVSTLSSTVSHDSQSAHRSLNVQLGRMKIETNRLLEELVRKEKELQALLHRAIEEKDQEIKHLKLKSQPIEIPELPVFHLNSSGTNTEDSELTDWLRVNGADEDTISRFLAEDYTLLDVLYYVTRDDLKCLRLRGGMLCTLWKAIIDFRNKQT

Like-named read-outs stand apart in the source and are kept apart here.

On to `CNC(=O)c1ccc2c(c1)C(=O)c1ccc(Nc3ccc(F)c(NC(=O)C4CC4)c3)cc1CC2` [Compound 2015], for which the remaining activity at 0.2 µM amounted to 84.5% at 340 wild-type kinases [1] (0.2 µM 2015, read-out: FLT3 residual activity); 84.5% at 340 wild-type kinases [1] (FLT3, 0.2 µM, read-out: residual activity); 109% on 340 wild-type kinases [2] (0.2 µM 2015, read-out: LYN residual activity); 109% on 340 wild-type kinases [2] (LYN, 0.2 µM, read-out: residual activity); 94.1% at 340 wild-type kinases [3] (0.2 µM 2015, read-out: FGFR2 residual activity); 94.1% at 340 wild-type kinases [3] (FGFR2, 0.2 µM, read-out: residual activity). In addition, the remaining activity at 0.2 µM at 340 wild-type kinases [4] (0.2 µM 2015, read-out: ASK1 residual activity) came to 95.5%; on 340 wild-type kinases [4] (ASK1, 0.2 µM, read-out: residual activity) it was 95.5%. The remaining activity at 1 µM at 340 wild-type kinases [1] (1 µM 2015, read-out: FLT3 residual activity) came to 80%; on 340 wild-type kinases [1] (FLT3, 1 µM, read-out: residual activity) it was 80%; on 340 wild-type kinases [2] (1 µM 2015, read-out: LYN residual activity) it was 82.5%; at 340 wild-type kinases [2] (LYN, 1 µM, read-out: residual activity), 82.5%; at 340 wild-type kinases [3] (1 µM 2015, read-out: FGFR2 residual activity), 96%; at 340 wild-type kinases [3] (FGFR2, 1 µM, read-out: residual activity) it was 96%. Moreover, the remaining activity at 1 µM was 95% at 340 wild-type kinases [4] (1 µM 2015, read-out: ASK1 residual activity) and 95% at 340 wild-type kinases [4] (ASK1, 1 µM, read-out: residual activity).
